Source: US7947675B2, “Trifluoromethylbenzamide derivatives and therapeutic uses thereof” (Merck Patent GmbH, priority 2005, dated 2011)

What was measured:
[1] = target: T1, CETP (cholesteryl ester transfer protein) (Homo sapiens, UniProt P11597); assay: In vitro screening test: inhibitory effect on the activity of CETP (3H-cholesterol ester transfer from HDL to biotinylated LDL, SPA); type: biochemical; details: incubation 24 hours at 37° C., relative to control (CETP+solvent)
T1 sequence (P11597 18-493): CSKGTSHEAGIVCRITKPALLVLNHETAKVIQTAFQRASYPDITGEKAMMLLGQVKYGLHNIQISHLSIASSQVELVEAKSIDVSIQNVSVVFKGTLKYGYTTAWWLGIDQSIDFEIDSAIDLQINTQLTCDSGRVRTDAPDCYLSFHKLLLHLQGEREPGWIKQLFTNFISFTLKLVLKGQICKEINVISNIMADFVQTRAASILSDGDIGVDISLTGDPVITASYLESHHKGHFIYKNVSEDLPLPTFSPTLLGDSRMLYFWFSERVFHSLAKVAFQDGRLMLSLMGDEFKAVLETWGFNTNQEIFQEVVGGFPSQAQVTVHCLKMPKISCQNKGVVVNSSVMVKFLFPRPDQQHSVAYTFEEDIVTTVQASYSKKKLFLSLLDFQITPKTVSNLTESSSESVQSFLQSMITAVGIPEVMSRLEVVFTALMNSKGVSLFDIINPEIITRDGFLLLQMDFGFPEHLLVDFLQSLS
Experimental: Measurement of an inhibitory effect on the activity of CETP (cholesteryl ester transfer protein)
The measurement of the CETP activity is performed by measuring the transfer of ^3H-cholesterol ester from the HDLs to the biotinylated LDLs.
The transfer is measured after incubation for 24 hours in the presence of donor (HDL), acceptor (LDL) and CETP, with or without inhibitor. The reaction is stopped and the transfer measured by addition of SPA streptavidin beads (Amersham).
The increase in scintillation is proportional to the transfer of ^3H-cholesterol ester via CETP to the LDLs.
To perform the test, 10 μl of ^3H-cholesterol ester HDL, 10 μl of biotinylated LDL and 10 μl of HEPES buffer (50 mM HEPES/[…]/0.1% BSA/0.05% NaN3, pH 7.4) are mixed with 10 μl of CETP (1 mg/ml) and the test product (1 μl of the stock solution at 10 mM in DMSO) or 1 μl of DMSO alone in a 96-well microplate (Costar).
Screening is performed at a final concentration of 10 μM per well in 0.1% of solvent.
The plates are then covered with a film, shaken and incubated under a humid atmosphere at 37° C. for 24 hours.
200 μl of SPA-streptavidin beads solution (Amersham, TRKQ 7005) are added and the radioactivity reading is taken 1 hour later on a scintillation counter (Top Count, Packard) with a reading time of 0.5 minute.
The inhibition results are expressed relative to the control test (CETP+solvent).
The IC 50 values are determined and expressed in μM.

Structure (SMILES) | IC50 [1] [nM] | melting point [°C]
O=C(Nc1ccc(Cl)c(Cl)c1)c1cc(C(F)(F)F)cc([N+](=O)[O-])c1N1CCCCC1 [Example 1, N-(3,4-Dichlorophenyl)-3-nitro-2-piperid-1-yl-5-trifluoromethylbenzamide] | 1450 | 
Nc1cc(C(F)(F)F)cc(C(=O)Nc2ccc(Cl)c(Cl)c2)c1N1CCCCC1 [Example 2, 3-Amino-N-(3,4-dichlorophenyl)-2-piperid-1-yl-5-trifluoromethylbenzamide] | 930 | 
O=C(Nc1ccc(Cl)c(Cl)c1)c1cc(C(F)(F)F)cc(Br)c1N1CCCCC1 [Example 3, 3-Bromo-N-(3,4-dichlorophenyl)-2-piperid-1-yl-5-trifluoromethylbenzamide] | 890 | 
N#Cc1cc(C(F)(F)F)cc(C(=O)Nc2ccc(Cl)c(Cl)c2)c1N1CCCCC1 [Example 4, 3-Cyano-N-(3,4-dichlorophenyl)-2-piperid-1-yl-5-trifluoromethylbenzamide] |  | 175
CC1CCN(c2c(Cl)cc(C(F)(F)F)cc2C(=O)Nc2ccc(Cl)c(Cl)c2)CC1 [Example 6, 3-Chloro-N-(3,4-dichlorophenyl)-2-(4-methylpiperid-1-yl)-5-trifluoromethylbenzamide] | 750 | 
